The source of these data is patent US9918472B2, “Animal repellent” (SCENT SCIENCE INTERNATIONAL INC., priority 2010, dated 2018).

Assay [1] has as its system wild-type mice (O-MACS-Cre). In words: Freezing test, quantification of fear reaction due to odor. Format: in vivo, mouse. The conditions noted are these: for Freezing time (%): mice, n=8, 20 min observation, value ± standard error, t-test vs 1,3-dioxolane; for freezing-inducing effect at too high a concentration: Example 3, FIG. 4, dilution series up to 1.082 mmol. On the procedure:
About 5- to 7-month-old littermate wild-type mice (O-MACS-Cre) were placed in the mouse cages set in a draft (one mouse per cage) to perform habituation for 20 min. Similarly, 20 min habituation was performed the next day. On day 3, odor pods containing odorant molecules were placed in the cages in the draft, and the mice were placed in the cages with odor pods. The behaviors of the mice from day 1 to day 3 were video-recorded and the freezing time was analyzed by FreezeFrame system manufactured by NeuroScience Inc. The time during which the mouse was motionless for 2 seconds or longer was measured as a freezing time, and the time of freezing during the 20 min observation time was shown in %. The freezing time on day 2 was shown as control without odor in the data. As the mice used for experiment, male mice were used to avoid abnormality in the olfactory sense due to the sexual cycle. […] The odor pod refers to an apparatus containing filter paper impregnated with odorant and placed in a plastic petri dish with a lid having a hole. In this experiment, 2 MB (2-methylbutyric acid) 45 μL (270.6 μmol) or TMT 35 μL (270.6 μmol) was used as the odorant molecule.
Using various compounds, the freezing test shown in Experimental Example 1 was performed. […] For the experiment, 270.6 μmol of odorant molecules were used. The abbreviations and the formal names of the odorant molecules used are as follows.
The influence of the concentration of the odorant molecule on the effect of inducing a freezing behavior was analyzed. […] The freezing behavior was analyzed by a method similar to that in Example 1. The amount of the odorant molecules used of the both compounds was 270.6 nmol for 0.001, 2.706 μmol for 0.01, 27.06 μmol for 0.1, 270.6 μmol for 1, and 1.082 mmol for 4. The odorant molecule concentration in the gas in the test system was measured by gas chromatography, and the presence of a dependency relationship between the amount of the odorant molecules used for the test and the odorant molecule concentration in the gas in the test system was confirmed.
Using the following test compounds (13 kinds), the freezing test shown in Experimental Example 1 was performed. […] For the experiment, 270.6 μmol of odorant compounds were used.

A further assay has as its system mice. In words: Acclimation test (freezing time on daily odor exposure for 8 days). Format: in vivo, mouse. Here is the method: About 5- to 7-month-old littermate wild-type mice (O-MACS-Cre) were placed in the mouse cages set in a draft (one mouse per cage) to perform habituation for 20 min. Similarly, 20 min habituation was performed the next day. On day 3, odor pods containing odorant molecules were placed in the cages in the draft, and the mice were placed in the cages with odor pods. The behaviors of the mice from day 1 to day 3 were video-recorded and the freezing time was analyzed by FreezeFrame system manufactured by NeuroScience Inc. The time during which the mouse was motionless for 2 seconds or longer was measured as a freezing time, and the time of freezing during the 20 min observation time was shown in %. The freezing time on day 2 was shown as control without odor in the data. As the mice used for experiment, male mice were used to avoid abnormality in the olfactory sense due to the sexual cycle. Each experiment was performed with n=5. The odor pod refers to an apparatus containing filter paper impregnated with odorant and placed in a plastic petri dish with a lid having a hole. In this experiment, 2 MB (2-methylbutyric acid) 45 μL (270.6 μmol) or TMT 35 μL (270.6 μmol) was used as the odorant molecule.
Acclimation test: By the method of Experimental Example 1, mice (N=8) were forced to smell the test compound (2MT) every day for 8 days, and the freezing time (%) was measured over time. As a control, mice that were forced to learn to feel fear with the smell of anisole by a method including applying an electric shock immediately after smelling anisole (hereinafter to be also referred to as fear learning mice) were used. The aforementioned fear learning mice (N=8) were forced to smell anisole every day for 8 days, and the freezing time (%) was measured over time.

As for `C1COCO1` [1,3-dioxolane, reference compound], the “fear reaction of the comparison odorant” value in assay [1] (Example 4, odorant used as comparison for the t-test) was “does not induce a fear reaction”.
With `CC1(C)NCCS1` [2,2-dimethylthiazolidine], in assay [1] (Example 4, 270.6 μmol odorant), the “Freezing time (%)” value was 29.3 ± 5.2 %.
Still for that read-out and setting: then `CC1=NCC(C)S1` (centres unmarked) [2,5-dimethyl-2-thiazoline], with 55.9 ± 4.4 %.
Still for that read-out and setting: to `Brc1nccs1` [2-bromothiazole] belongs 4.8 ± 1.6 %; to `CCc1nccs1` [2-ethylthiazole], 7.3 ± 1.6 %.
Same read-out and setting: then `CSC1=NCCS1` [2-methylthio-2-thiazoline], with 6.2 ± 3.0%.
Consider `CC1=NCCS1` [2MT, 2-methyl-2-thiazoline], for which the “freezing time profile on smelling the odor every day for 8 days” value with mice (Example 5, FIG. 5, mice N=8, not conditioned) is on record as “did not decrease but rather increased”. In addition, the “freezing-inducing effect at too high a concentration” value in assay [1] is listed as “decreased effect”. Also, the “Freezing time (%)” value in assay [1] (Example 4, 270.6 μmol odorant) is recorded as 49.9 ± 3.0 %.
Take `CC1CN=CS1` (centres unmarked) [5-methyl-2-thiazoline]: the “Freezing time (%)” value in assay [1] (Example 4, 270.6 μmol odorant) was found to be 39.6 ± 3.5 %.
Take `CC1CNCS1` (centres unmarked) [5-methylthiazolidine]: the “Freezing time (%)” value in assay [1] (Example 4, 270.6 μmol odorant) came to 4.2 ± 2.7%.
With `CC1=NC(C)SC1C` (centres unmarked) [TMT, 2,4,5-trimethyl-3-thiazoline, reference compound], the “freezing-inducing effect at too high a concentration” value in assay [1] is “decreased effect”. Moreover, the “freezing time compared with 2 MB (putrid odor)” value in assay [1] (Experimental Example 1, FIG. 1, mice n=5, 270.6 μmol odorant) is recorded as “longer freezing time”.
For the compound `COc1ccccc1` [anisole], the “freezing time profile on smelling the odor every day” value with mice (Example 5, FIG. 5, fear learning mice, anisole every day for 8 days, N=8) is “decreased with time”. Further, in the assay with mice (Example 5, fear learning mice (electric shock after smelling anisole), N=8), the “freezing time with anisole the next day” value is “not less than 50%”.
Turning to `CCN=C=S` [ethyl isothiocyanate], the “Freezing time (%)” value in assay [1] (Example 4, 270.6 μmol odorant) amounted to 14.0 ± 4.5 %.
In the case of `CC1(C)CS1` [isobutylene sulfide], the “Freezing time (%)” value in assay [1] (Example 4, 270.6 μmol odorant) amounted to 4.3 ± 1.9 %.
On the same count and under the same terms, to `C1CSCN1` [thiazolidine] belongs 18.2 ± 5.3 %; to `C1CSCCN1` [thiomorpholine], 15.9 ± 2.5 %; to `c1ccsc1` [thiophene], 2.7 ± 1.6%.
